# From patent US6833456B2, “Indolyl-urea derivatives of thienopyridines useful as antiangiogenic agents, and methods for their use” (Agouron Pharmaceuticals, Inc., priority 2002, dated 2004)
# Several values for one entry are separate records, joined by “and”; a condition that tells them apart may be missing. Equal entries are not always repeated.
# How the values were obtained:
# [1] = tested on: human umbilical vein endothelial cells (HUVEC); assay: HUVEC+VEGF proliferation assay; type: cell-based; details: VEGF 6 ng/mL, MTT
# Method in brief: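 Proliferation driven by VEGF (final 6 ng/mL) was quantified by MTT reduction (A595) 72 h after stimulation. Passage 3-4 HUVEC were starved for 24 h in 1% FBS F12K and given test agent 1 h before VEGF, with DMSO at 0.1% final.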
# [2] = Mouse PK assay; type: in vivo, B6 female mice; details: for AUC / Cmax: female, B6, mouse, plasma; for AUC / Cmax / Mouse Cmin, po: po; for Cmax: read-out: Mouse Cmax, po ng-h/mL
# Method in brief: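 Plasma levels were measured by HPLC with UV detection after acetonitrile precipitation, using extracted standards, in blood taken up to 4 h (0.5, 1, 2, 4 h) post-dose. Dosing: 50 mg/kg orally or intraperitoneally to two groups of four female B6 mice, vehicle PEG 400:acidified H2O 30:70 suspension.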
# [3] = molecular target: T1, PDGFRβ (Homo sapiens, UniProt P09619); assay: PAE-PDGFRβ phosphorylation in PAE-PDGFRB cells assay; type: cell-based; details: PAE cells overexpressing human PDGFRβ, PDGF-BB stimulated; read-out: PAE PDGFR autophos IC50
# T1 construct: expressed in transfected cells; host or cells: porcine aorta endothelial (PAE) cells
# T1 sequence (P09619 33-1106): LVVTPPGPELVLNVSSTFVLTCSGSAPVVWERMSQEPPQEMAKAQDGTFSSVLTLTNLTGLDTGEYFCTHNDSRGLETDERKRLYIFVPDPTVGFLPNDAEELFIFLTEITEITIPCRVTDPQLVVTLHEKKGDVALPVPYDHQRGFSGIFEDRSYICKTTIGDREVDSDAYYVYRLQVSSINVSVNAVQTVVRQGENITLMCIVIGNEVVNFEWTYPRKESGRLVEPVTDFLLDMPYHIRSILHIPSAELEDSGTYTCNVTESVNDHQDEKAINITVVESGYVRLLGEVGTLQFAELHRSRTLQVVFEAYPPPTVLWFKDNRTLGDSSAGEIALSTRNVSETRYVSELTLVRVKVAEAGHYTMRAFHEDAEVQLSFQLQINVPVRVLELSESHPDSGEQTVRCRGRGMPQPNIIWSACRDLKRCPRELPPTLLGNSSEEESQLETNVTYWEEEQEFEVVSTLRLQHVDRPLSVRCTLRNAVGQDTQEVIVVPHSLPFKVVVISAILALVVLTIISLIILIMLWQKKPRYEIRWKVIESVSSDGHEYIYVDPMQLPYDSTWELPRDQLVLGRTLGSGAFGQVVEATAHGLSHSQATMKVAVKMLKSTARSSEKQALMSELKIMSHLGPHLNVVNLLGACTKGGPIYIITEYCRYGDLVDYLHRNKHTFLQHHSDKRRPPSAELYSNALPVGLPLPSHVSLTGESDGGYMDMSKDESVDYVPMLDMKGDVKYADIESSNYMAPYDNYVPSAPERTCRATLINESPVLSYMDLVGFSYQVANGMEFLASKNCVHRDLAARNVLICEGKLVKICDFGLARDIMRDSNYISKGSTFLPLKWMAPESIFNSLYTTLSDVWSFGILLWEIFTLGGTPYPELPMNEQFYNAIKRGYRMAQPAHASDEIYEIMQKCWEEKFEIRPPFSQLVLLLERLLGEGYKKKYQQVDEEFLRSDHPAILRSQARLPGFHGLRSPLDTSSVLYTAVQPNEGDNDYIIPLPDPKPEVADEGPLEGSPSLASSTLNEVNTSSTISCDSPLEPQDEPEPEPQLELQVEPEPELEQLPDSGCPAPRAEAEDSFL
# Method in brief: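 PAE cells overexpressing human PDGFRβ, serum-starved 16 h (0.1% FBS), compound 1 h at 37° C (0.5% DMSO), then 1 μg/mL PDGF-BB with 2 mM Na3VO4 for 8 min. Receptor captured by anti-PDGFRβ, phosphotyrosine detected by HRP-PY20/TMB at 450 nm; IC50 by four-parameter fit.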
AUC ([2]; 50 mg/kg),"Cmax ([2]; 50 mg/kg, p.o., 50 mg/kg)","Mouse Cmin, po [2]",IC50 [3],"Mouse Cmax, po ng/mL ([2]; p.o., 50 mg/kg)",Structure (SMILES),"IC50 ([1]; Homo sapiens, HUVEC, 72 h)",IC50 ([1]; 72 hours)
10300 ng·h/mL,3950 ng/mL,408 ng/mL,84 nM and 99 nM,–,"CNC(=O)n1c(C)cc2cc(Nc3ccnc4cc(-c5nc(C(C)(C)O)cs5)sc34)ccc21 [Example 3a, 5-{2-[4-(1-Hydroxy-1-methyl-ethyl)-thiazol-2-yl]-thieno[3,2-b]pyridin-7-ylamino}-2-methyl-indole-1-carboxylic acid methylamide]",0.245 nM,–
–,–,0 ng/mL,631 nM,0 ng/mL,"CCOC(=O)c1csc(-c2cc3nccc(Nc4ccc5c(c4)cc(C)n5C(=O)NC)c3s2)n1 [Example 3c, 2-[7-(2-Methyl-1-methylcarbamoyl-1H-indol-5-ylamino)-thieno[3,2-b]pyridin-2-yl]-thiazole-4-carboxylic acid ethyl ester]",2.33 nM,–
44 ng·h/mL,24 ng/mL,2 ng/mL,> 1000 nM,–,"CNC(=O)n1c(C)cc2cc(Nc3cccc4cc(C(=O)N5C[C@H](OC)C[C@H]5CO)sc34)ccc21 [Example 3f, 5-[2-((2S,4R)-2-Hydroxymethyl-4-methoxy-pyrrolidine-1-carbonyl)-benzo[b]thiophen-7-ylamino]-2-methyl-indole-1-carboxylic acid methylamide]",3.99 nM,–
46 ng·h/mL,19 ng/mL,2 ng/mL,> 1000 nM,–,"CO[C@@H]1C[C@@H](CO)N(C(=O)c2cc3cccc(Nc4ccc5c(c4)cc(C)n5C(=O)NC4CC4)c3s2)C1 [Example 3g, 5-[2-((2S,4R)-2-Hydroxymethyl-4-methoxy-pyrrolidine-1-carbonyl)-benzo[b]thiophen-7-ylamino]-2-methyl-indole-1-carboxylic acid cyclopropylamide]",0.44 nM,–
2880 ng·h/mL,2820 ng/mL,20 ng/mL,599 nM and 126 nM,–,"CNC(=O)n1c(C)cc2cc(Oc3ccnc4cc(C(=O)N5C[C@H](OC)C[C@H]5CO)sc34)ccc21 [Example 3o, 5-[2-(2-Hydroxymethyl-4-methoxy-pyrrolidine-1-carbonyl)-thieno[3,2-b]pyridin-7-yloxy]-2-methyl-indole-1-carboxylic acid methylamide]",0.24 nM,–
703 ng·h/mL,575 ng/mL,3 ng/mL,16.5 nM,–,"CNC(=O)n1c(C)cc2cc(Oc3ccnc4cc(C(=O)N5CCC[C@H]5COC)sc34)ccc21 [Example 4a, 5-(2-[(S)-2-(methoxymethyl)pyrrolidine-1-carbonyl]thieno[3,2-b]pyridin-7-yloxy)-2-methylindole-1-carboxylic acid methylamide]",0.2 nM,–
5540 ng·h/mL,3790 ng/mL,23 ng/mL,16.7 nM,–,"CNC(=O)n1c(C)cc2cc(Oc3ccnc4cc(C(=O)N5CCC[C@@H]5COC)sc34)ccc21 [Example 4e, 5-[2-(2R-Methoxymethyl-pyrrolidine-1-carbonyl)-thieno[3,2-b]pyridin-7-yloxy]-2-methyl-indole-1-carboxylic acid methylamide]",0.6 nM,–
15600 ng·h/mL,8840 ng/mL,112 ng/mL,14 nM,–,"C#CCNC(=O)n1c(C)cc2cc(Oc3ccnc4cc(C(=O)N5CC[C@H](OC)C5)sc34)ccc21 [Example 4f, 5-[2-(3S-Methoxy-pyrrolidine-1-carbonyl)-thieno[3,2-b]pyridin-7-yloxy]-2-methyl-indole-1-carboxylic acid prop-2-ynylamide]",0.057 nM,–
2560 ng·h/mL,1820 ng/mL,47 ng/mL,18.2 nM,–,"CNC(=O)n1c(C)cc2c(F)c(Oc3ccnc4cc(C(=O)N5CCC[C@H]5CO)sc34)ccc21 [Example 5n, 4-Fluoro-5-[(2-{[(2S)-2-(hydroxymethyl)pyrrolidin-1-yl]carbonyl}thieno[3,2-b]pyridin-7-yl)oxy]-N,2-dimethyl-1H-indole-1-carboxamide]",–,–
1630 ng·h/mL,302 ng/mL,125 ng/mL,29.1 nM,–,"C#CCNC(=O)n1c(C)c(Cl)c2c(F)c(Oc3ccnc4cc(C(=O)N5CC[C@H](O)C5)sc34)ccc21 [Example 6d, 3-Chloro-4-fluoro-5-[2-(3S-hydroxy-pyrrolidine-1-carbonyl)-thieno[3,2-b]pyridin-7-yloxy]-2-methyl-indole-1-carboxylic acid prop-2-ynylamide]",–,–
9530 ng·h/mL,4540 ng/mL,–,27 nM and 33 nM,–,"CNC(=O)n1c(C)cc2cc(Oc3ccnc4cc(C(=O)N5CC[C@H](O)C5)sc34)ccc21 [Example 9g, 5-[2-(3S-Hydroxy-pyrrolidine-1-carbonyl)-thieno[3,2-b]pyridin-7-yloxy]-2-methyl-indole-1-carboxylic acid methylamide]",–,–

# Continued, molecule first:
Structure (SMILES),AUC ([2]; 50 mg/kg),"Cmax ([2]; 50 mg/kg, p.o., 50 mg/kg)","Mouse Cmin, po [2]",IC50 [3],"Mouse Cmax, po ng/mL ([2]; p.o., 50 mg/kg)","IC50 ([1]; Homo sapiens, HUVEC, 72 h)",IC50 ([1]; 72 hours)
"CNC(=O)n1c(C)cc2cc(Nc3ccnc4cc(C(=O)N5CCC[C@@H]5CO)sc34)ccc21 [Example 1a, 5-[2-(2R-Hydroxymethyl-pyrrolidine-1-carbonyl)-thieno[3,2-b]pyridin-7-ylamino]-2-methyl-indole-1-carboxylic acid methylamide]",1020 ng·h/mL,526 ng/mL,3 ng/mL,239 nM,–,0.91 nM,–
"CNC(=O)n1c(C)cc2cc(Nc3ccnc4cc(C(=O)N5CCC[C@@H]5COC)sc34)ccc21 [Example 1b, 5-[2-(2R-Methoxymethyl-pyrrolidine-1-carbonyl)-thieno[3,2-b]pyridin-7-ylamino]-2-methyl-indole-1-carboxylic acid methylamide]",78 ng·h/mL,24 ng/mL,5 ng/mL,73 nM and 86 nM,–,0.69 nM,–
"Cc1cc2cc(Nc3ccnc4cc(C(=O)N5CCC[C@@H]5CO)sc34)ccc2n1C(=O)NC1CC1 [Example 1c, 5-[2-(2R-Hydroxymethyl-pyrrolidine-1-carbonyl)-thieno[3,2-b]pyridin-7-ylamino]-2-methyl-indole-1-carboxylic acid cyclopropylamide]",616 ng·h/mL,317 ng/mL,7 ng/mL,> 100 nM and 179 nM,–,0.7 nM,–
"COC[C@H]1CCCN1C(=O)c1cc2nccc(Nc3ccc4c(c3)cc(C)n4C(=O)NC3CC3)c2s1 [Example 1d, 5-[2-(2R-Methoxymethyl-pyrrolidine-1-carbonyl)-thieno[3,2-b]pyridin-7-ylamino]-2-methyl-indole-1-carboxylic acid cyclopropylamide]",5070 ng·h/mL,2820 ng/mL,32 ng/mL,42 nM and 45 nM and 74 nM,–,–,0.56 nM
"CNC(=O)n1c(C)cc2cc(Nc3ccnc4cc(C(=O)N5CC[C@@H](OC)C5)sc34)ccc21 [Example 1l, 5-[2-(3R-Methoxy-pyrrolidine-1-carbonyl)-thieno[3,2-b]pyridin-7-ylamino]-2-methyl-indole-1-carboxylic acid methylamide]",719 ng·h/mL,504 ng/mL,5 ng/mL,49 nM and 45 nM and 95 nM,–,0.3 nM,–
"CNC(=O)n1c(C)cc2cc(Nc3ccnc4cc(C(=O)N5CC[C@@H](O)C5)sc34)ccc21 [Example 1n, 5-[2-(3R-Hydroxy-pyrrolidine-1-carbonyl)-thieno[3,2-b]pyridin-7-ylamino]-2-methyl-indole-1-carboxylic acid methylamide]",12 ng·h/mL,8 ng/mL,0 ng/mL,> 1000 nM and 2600 nM,–,0.64 nM,–
"C#CCNC(=O)n1c(C)cc2cc(Nc3ccnc4cc(C(=O)N5CC[C@@H](O)C5)sc34)ccc21 [Example 1o, 5-[2-(3R-Hydroxy-pyrrolidine-1-carbonyl)-thieno[3,2-b]pyridin-7-ylamino]-2-methyl-indole-1-carboxylic acid prop-2-ynylamide]",219 ng·h/mL,100 ng/mL,6 ng/mL,533 nM,–,0.34 nM,–
"COC[C@@H]1CCCN1C(=O)c1cc2nccc(Nc3ccc4c(c3)cc(C)n4C(=O)NC3CC3)c2s1 [Example 2c, 5-(2-[(S)-2-(methoxymethyl)pyrrolidine-1-carbonyl]thieno[3,2-b]pyridin-7-ylamino)-2-methylindole-1-carboxylic acid cyclopropylamide]",6700 ng·h/mL,3700 ng/mL,35 ng/mL,84 nM and 105 nM and 87 nM,–,0.44 nM,–
"Cc1cc2cc(Nc3ccnc4cc(-c5nccn5C)sc34)ccc2n1C(=O)NC1CC1 [Example 2d, 5-(2-[1-methyl-1H-imidazol-2-yl]thieno[3,2-b]pyridin-7-ylamino)-2-methylindole-1-carboxylic acid cyclopropylamide]",457 ng·h/mL,411 ng/mL,0 ng/mL,11 nM and 25 nM,–,0.15 nM,–
"Cc1cc2cc(Nc3ccnc4cc(C(=O)N5CCC[C@H]5CO)sc34)ccc2n1C(=O)NC1CC1 [Example 2e, 5-(2-[(S)-2-(hydroxymethyl)pyrrolidine-1-carbonyl]thieno[3,2-b]pyridin-7-ylamino)-2-methylindole-1-carboxylic acid cyclopropylamide]",43 ng·h/mL,28 ng/mL,0 ng/mL,> 1000 nM,–,0.5 nM,–
